Data on 3 compounds can be found in patent US8604220B2, “Isolation of Simalikalactone E and use thereof as a medicament, in the treatment of malaria” (priority 2009, dated 2013).

Data set [1] in a line: In vitro cytotoxicity on primary rodent hepatocytes, MTT assay. The class given is cell-based, mouse. The settings on record: Swiss, mouse, primary hepatocytes; one of the 3 experiments carried out; read-out: cytotoxicity IC50 on murine hepatocytes. The procedure: (§1) In parallel, the cytotoxicity of the compound was evaluated on human and rodent hepatocytes treated under the same conditions as in the assays for activity of the test compound, by means of the MTT (tetrazolium) colorimetric assay (Mosmann et al., 1983). After incubation of the primary rodent or human hepatocytes for 2 days or 5 days, respectively, with the various concentrations of the test compound, 100 μl of MTT solution ([…]) were added to each well. The plates were then incubated for 4 hours at 37° C. The formazan crystals were then dissolved in 100 μl of DMSO-ethanol mixture (V/V). The optical density was measured by spectrophotometry at 540 nm. The results are expressed as percentage cell viability relative to the untreated control.

Data set [2] deals with primary rodent hepatocytes. The data set is described as above. It is filed as cell-based, mouse. The settings on record: the other two experiments; highest concentration tested 5.54 μM. The procedure:
as §1

The subject of data set [3] is liver stages of Plasmodium yoelii. The experiment in a line: In vitro activity against liver stages of P. yoelii in mouse primary hepatocytes. It is filed as cell-based. The settings on record: for IC50: Plasmodium yoelii, Hepatocyte, liver stages, 48 hours, SkE mean of three experiments, read-out: IC50 on murine hepatocytes infected with P. yoelii. The procedure: (§2) The in vitro activity of SkE against the pre-erythrocytic stages was tested on different Plasmodium species. […] The in vitro assays were carried out using cultures of human primary hepatocytes (HH) or mouse primary hepatocytes (MH), respectively. The primary cells were isolated by collagenase perfusion of pieces of liver (obtained from humans or from female Swiss mice, respectively), followed by purification of the separated cells on a percoll gradient. The hepatocytes were seeded into 96-well microplates (35 000 MH/well and 82 500 HH/well) and maintained in culture at 37° C. and 5% CO2 in a William medium supplemented with 10% FCS (Hyclone), 100 U/ml of penicillin, […] of streptomycin, 2 mM of glutamine, 5 μg/ml of insulin and 5×10^−7 M of hydrocortisone hemisuccinate. A stock solution of SkE was prepared in DMSO at 200 mg/ml, and then diluted in complete medium described above so as to obtain the desired concentrations. The hepatocytes were infected with P. yoelii sporozoites (30 000) or P. falciparum sporozoites (40 000). The SkE compound was added simultaneously with sporozoites at various concentrations. The culture medium was then replaced 3 h after the inoculation of the sporozoites, and then every day. The cultures were fixed 48 hours after the infection for P. yoelii, and 5 days after infection for P. falciparum. The inhibitory effect of the compound was quantified, after fluorescent immunolabeling of the liver schizonts with a mouse serum directed against PfHSP70, by fluorescence microscopy analysis.

Data set [4] deals with P. falciparum (F32 Tanzania, FcB1 Colombia, W2 Indochina strains). The data set can be described thus: Antiplasmodial activity in vitro, tritiated hypoxanthine incorporation. The class given is cell-based. The settings on record: Plasmodium falciparum, 48 h, read-out: IC50, inhibits 50% of the growth of P. falciparum in culture. The procedure:
The following three strains of Plasmodium falciparum were used: • chloroquine-sensitive F32 Tanzania • chloroquine-resistant FcB1 Colombia • W2 Indochina.
The antimalarial activity of the various products is evaluated by means of the radioactive method using tritiated hypoxanthine, described by Desjardins et al., with the modifications introduced by Benoit et al. (Desjardins R. E. et al., Antimicrob. Agents Chemother, 1979, 16: 710-718; F. Benoit et al. Trans. Roy. Soc. Trop. Med. Hyg. 89: 217-218).
The test is carried out in 96-well culture plates (supplier: TPP, Switzerland) on cultures mainly at the ring stage. The parasites are brought into contact with the products for 48 h at 37° C. and 5% CO2. The growth of the parasite is then estimated by following tritiated hypoxanthine incorporation into the nucleic acids of the parasite. The IC50 values are determined graphically on curves of percentage inhibition of growth as a function of concentration. Thus, the antimalarial activity of SkE was evaluated according to the following protocol. […]
The filter is then placed in a cassette which is placed in the β-counter in order to measure the radioactivity. […]

Another data set has as its system P. vinckei petteri. The experiment in a line: Antimalarial activity in vivo, mice infected with P. vinckei petteri (Peters test). More on the design: species or system Plasmodium vinckei petteri. The settings on record: for survival of the mice compared with chloroquine: IP route; for ED50, dose inhibiting 50% of the growth of P. vinckei petteri: mice, 4 days. The procedure:
The antimalarial activity of SkE was evaluated on female Swiss mice (22 g±2) infected with P. vinckei petteri. Before infection of the mice having been used for the test, the parasites were thawed, injected and maintained by passaging in two batches of mice. The parasitized blood was taken from the retro-orbital sinus and each mouse of the study was infected with 2×10^7 parasites intraperitoneally. The infected animals were divided up into batches of 5 per cage and were treated intraperitoneally each day for 4 days. The SkE was tested at 4 concentrations prepared in 90% DMSO (intraperitoneal route) or carboxymethylcellulose (oral route) in such a way that each mouse receives 200 μl of preparation. The experiment included control parasitized mice receiving 200 μl of 90% DMSO or CMC alone orally, and 3 batches of 5 mice, each of these batches being treated with solutions of chloroquine at 1, 5 and 10 mg/kg diluted in PBS (IP).
At the end of the treatment (5 d after the infection), a blood smear was performed from a drop of blood originating from the tail of each mouse, fixed with methanol and stained with Giemsa. The slides were examined under a microscope and the parasitemia counted for 10 000 red blood cells.
The survival of the mice was monitored for 21 days.

Data set [5] is described as follows: Cytotoxicity on THP1 cells. It is filed as cell-based. The settings on record: human.
The test system of data set [6] is liver stages of Plasmodium falciparum. The data set can be described thus: In vitro activity against liver stages of P. falciparum in human primary hepatocytes. The settings on record: for therapeutic index TI=TC50/IC50: P. falciparum liver stages, human hepatocytes; for IC50: Plasmodium falciparum, Hepatocyte, 120 h, human primary hepatocytes, 5 days, SkE mean of two experiments. It is filed as cell-based. The procedure:
as §2

A further data set has as its system Vero cells. The experiment in a line: Cytotoxicity on Vero cells, tritiated hypoxanthine incorporation. The settings on record: for toxicity compared with Simalikalactone D: mammalian cell lines (Vero cells). It is filed as cell-based, monkey. The procedure:
(§3) This evaluation is carried out on two cell types, the MCF-7 line, which is a mammary tumor cell line, and Vero cells (monkey kidney cells).
(§4) VERO cells are monkey kidney epithelial cells. They are cultured in the same way as the MCF-7, but in EMEM medium supplemented with 10% FCS, nonessential amino acids, sodium pyruvate, HEPES and glutamine.
(§5) The evaluation of cytotoxicity follows the same method as the antimalarial activity test, but with P. falciparum being replaced with the MCF-7 or VERO cells.
(§6) However, there are a few minor modifications, owing to the different mode of culture. This is because the cells used for the cytotoxicity tests are adherent cells and their growth is slower. Consequently, they are seeded in 96-well plates 24 hours before they are brought into contact with the test products. After 24 h, the cells adhere to the bottom of the well, the medium is changed, and then the test molecules are added, the dilution thereof being carried out in complete medium. The medium used depends on the cells used (DMEM or EMEM).
(§7) In the same way as for the antimalarial activity test, tritiated hypoxanthine is added 24 hours after bringing into contact with the products, and the plate is placed in the freezer 48 hours later. Finally, the radioactivity is measured as for the antimalarial activity test. The evaluation of the IC50 values is carried out graphically as for that of P. falciparum.

Test in data set [7]: as above
It is filed as cell-based, monkey. The settings on record: monkey, Vero cells (monkey kidney epithelial cells). The procedure:
as §3, §4, §5, §6, §7

Setting [8] is: Vero cells versus P. falciparum.

Turning to `CCC(C)C(=O)O[C@@H]1[C@H]2C(C)=CC(=O)[C@@H](O)[C@]2(C)[C@H]2[C@@H](O)[C@H](O)[C@@]3(C)OC[C@@]24[C@@H]1OC(=O)[C@H](OC(=O)C(C)CC)[C@@H]34` (some centres unmarked) [SkE, Simalikalactone E], the IC50 at 2 days in [1] came to 1120 nM. Besides, the “cytotoxicity on murine hepatocytes at highest concentration tested” value in data set [2] is given as “no toxicity was observed”. The IC50 in data set [3] was 186 ± 16 nM; in data set [4], 24 to 68 nM; in [5], 33 nM; in data set [6] it was 1200 ± 190 nM; in the data set on Vero cells (Primates, Vero cells, read-out: inhibits 50% of the growth of Vero mammalian cells), 6570 nM. The “activity relative to primaquine on P. yoelii liver stages” value in data set [3] (fold more active than primaquine, same conditions) is listed as “at least 3 times”. Further, the “survival of the mice compared with chloroquine” value was “always better than that of the mice treated with CQ at the doses of 1” with P. vinckei petteri (all doses, p<0.05) and “equivalent to what is obtained for CQ at 10 mg/kg/d” with P. vinckei petteri (dose of 1 mg/kg/d). For the same compound, the “mean survival time of the mice” value with P. vinckei petteri (ip at 1 mg/kg/day, monitored for 3 weeks, one experiment) is “greater than 18.6 days”. Also, the figures for the “ED50, dose inhibiting 50% of the growth of P. vinckei petteri” value with P. vinckei petteri (intraperitoneally) and in the data set with P. vinckei petteri (orally) were 0.5 mg/kg/day and 1 mg/kg/day, respectively. In data set [6], the “therapeutic index TI=TC50/IC50” value turned out to be 75. The selectivity index result with Vero cells (setting [8]) is listed as “greater than 100”. In addition, the “selectivity index with respect to P. falciparum compared with SkD” value in the data set on Vero cells (setting [8]) is recorded as “twice that of SkD”. The “toxicity compared with Simalikalactone D” value with Vero cells is “less than that of SkD”; in the data set with Vero cells (listed as Simalikalactone E), “less toxicity than Simalikalactone D”. Moreover, in [7], the IC50 at 72 h worked out at 6000 nM.

Regarding `CCN(CC)CCCC(C)Nc1ccnc2cc(Cl)ccc12` (centres unmarked) [chloroquine, reference compound], in the data set on P. vinckei petteri (intraperitoneally), the “ED50, dose inhibiting 50% of the growth of P. vinckei petteri” value is 3 mg/kg/day.

For `COc1cc(NC(C)CCCN)c2ncccc2c1` (centres unmarked) [primaquine, reference compound], the values for the IC50 in [3] and in data set [6] were 640 nM and 800 nM, respectively. Besides, the “therapeutic index TI=TC50/IC50” value in [6] was found to be 81.
